The text below walks through data of ChEMBL document CHEMBL1201862, “PubChem BioAssay data set” (2004).

The test system of test [1] is Streptococcus sp. 'group A'. Briefly: Streptococcus pyogenes SK(-)GAS viability under kanamycin – luminescence, BacTiterGlo, confirmation, counter-screen for streptokinase expression inhibitor project, dose response (AID 1900). The class given is functional, organism-based. (The purpose of a counterscreen is to sort out artefacts and off-target activity.)
In test [2] the target is T1, Sentrin-specific protease 6 (Homo sapiens, UniProt Q9GZR1).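 Also: Luminescence-based dose-response confirmatory assay of SENP6 inhibition, following up an ultra-high-throughput screen.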
T1 sequence (Q9GZR1 whole entry): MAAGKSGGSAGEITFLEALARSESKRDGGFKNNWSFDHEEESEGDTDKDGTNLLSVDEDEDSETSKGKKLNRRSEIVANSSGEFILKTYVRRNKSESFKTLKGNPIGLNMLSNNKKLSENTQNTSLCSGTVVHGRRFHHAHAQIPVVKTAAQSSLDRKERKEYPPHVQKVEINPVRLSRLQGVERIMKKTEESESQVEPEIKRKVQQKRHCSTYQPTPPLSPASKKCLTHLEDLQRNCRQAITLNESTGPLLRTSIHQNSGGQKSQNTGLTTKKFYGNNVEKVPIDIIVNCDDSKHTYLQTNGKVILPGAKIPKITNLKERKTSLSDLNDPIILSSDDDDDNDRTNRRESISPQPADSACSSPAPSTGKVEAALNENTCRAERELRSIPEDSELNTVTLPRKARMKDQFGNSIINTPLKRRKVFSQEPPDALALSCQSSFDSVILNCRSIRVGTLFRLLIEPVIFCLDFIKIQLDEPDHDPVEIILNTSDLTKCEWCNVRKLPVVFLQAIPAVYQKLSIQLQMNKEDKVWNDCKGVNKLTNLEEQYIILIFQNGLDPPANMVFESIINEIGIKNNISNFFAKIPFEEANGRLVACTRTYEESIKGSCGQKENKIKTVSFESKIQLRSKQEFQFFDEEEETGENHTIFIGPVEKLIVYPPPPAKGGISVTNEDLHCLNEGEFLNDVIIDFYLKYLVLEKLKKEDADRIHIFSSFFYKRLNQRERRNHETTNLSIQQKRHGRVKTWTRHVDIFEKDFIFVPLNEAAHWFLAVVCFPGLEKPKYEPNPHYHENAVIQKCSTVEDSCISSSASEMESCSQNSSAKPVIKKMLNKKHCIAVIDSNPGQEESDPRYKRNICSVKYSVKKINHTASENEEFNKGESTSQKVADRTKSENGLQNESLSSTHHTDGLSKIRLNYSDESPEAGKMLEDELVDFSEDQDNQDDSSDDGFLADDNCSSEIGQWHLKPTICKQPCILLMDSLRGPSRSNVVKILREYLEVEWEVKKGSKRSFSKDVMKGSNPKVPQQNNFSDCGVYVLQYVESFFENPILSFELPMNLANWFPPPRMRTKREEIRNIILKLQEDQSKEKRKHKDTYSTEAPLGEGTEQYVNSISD
Type of test: functional.

Test [3] concerns the target T2, Sentrin-specific protease 7 (Homo sapiens, UniProt Q9BQF6).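 Also: Luminescence-based dose-response confirmation of ultra-high-throughput screening hits, measuring inhibition of SENP7.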
T2 sequence (Q9BQF6 whole entry): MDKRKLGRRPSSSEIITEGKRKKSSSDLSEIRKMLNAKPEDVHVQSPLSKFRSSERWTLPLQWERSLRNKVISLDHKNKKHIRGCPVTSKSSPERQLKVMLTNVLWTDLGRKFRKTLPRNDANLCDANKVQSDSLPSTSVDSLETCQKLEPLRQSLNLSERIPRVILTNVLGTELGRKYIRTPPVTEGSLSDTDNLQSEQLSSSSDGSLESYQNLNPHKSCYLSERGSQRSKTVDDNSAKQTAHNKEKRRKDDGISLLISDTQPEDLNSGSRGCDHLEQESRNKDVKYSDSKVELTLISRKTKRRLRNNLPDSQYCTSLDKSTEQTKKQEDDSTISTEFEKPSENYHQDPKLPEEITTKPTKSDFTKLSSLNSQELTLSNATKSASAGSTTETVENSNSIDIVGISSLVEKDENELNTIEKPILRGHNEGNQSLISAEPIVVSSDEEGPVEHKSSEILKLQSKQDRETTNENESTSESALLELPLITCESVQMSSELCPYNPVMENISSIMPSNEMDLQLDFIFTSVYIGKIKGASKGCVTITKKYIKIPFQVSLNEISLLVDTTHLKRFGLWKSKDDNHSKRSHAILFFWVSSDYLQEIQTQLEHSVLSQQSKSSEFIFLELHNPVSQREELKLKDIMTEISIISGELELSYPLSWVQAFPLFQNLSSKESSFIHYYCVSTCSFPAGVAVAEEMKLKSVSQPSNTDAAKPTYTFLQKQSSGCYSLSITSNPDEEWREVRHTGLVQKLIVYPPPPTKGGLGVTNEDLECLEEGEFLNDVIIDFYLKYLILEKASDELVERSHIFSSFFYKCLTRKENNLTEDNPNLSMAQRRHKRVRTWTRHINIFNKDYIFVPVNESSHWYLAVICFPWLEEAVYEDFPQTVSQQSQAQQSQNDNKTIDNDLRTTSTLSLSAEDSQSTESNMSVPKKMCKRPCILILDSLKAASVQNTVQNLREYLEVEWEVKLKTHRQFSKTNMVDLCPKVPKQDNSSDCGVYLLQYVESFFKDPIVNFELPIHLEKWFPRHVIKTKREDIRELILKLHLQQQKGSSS
The class given is functional.

The target in the next test is T3, Caspase-3 (Homo sapiens, UniProt P42574).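 Also: Dose-response selectivity test against caspase-3 for candidate inhibitors of sentrin-specific proteases (SENPs).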
T3 sequence (P42574 whole entry): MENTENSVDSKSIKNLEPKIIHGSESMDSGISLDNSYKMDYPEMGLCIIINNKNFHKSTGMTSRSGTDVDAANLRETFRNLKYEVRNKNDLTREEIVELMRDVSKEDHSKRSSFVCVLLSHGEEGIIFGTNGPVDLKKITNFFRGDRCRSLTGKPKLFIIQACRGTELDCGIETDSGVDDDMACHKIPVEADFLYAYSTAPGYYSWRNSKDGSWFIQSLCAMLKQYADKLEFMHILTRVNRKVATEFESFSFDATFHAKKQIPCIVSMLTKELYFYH
Type of test: functional.

A further test has as its system Streptococcus. The test is described as follows: GAS UMAA2166 growth inhibition – luminescence, BacTiterGlo, counter-screen for streptokinase expression inhibitor project, dose response (AID 1915).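 Also: potency for reduction of bacterial viability or growth.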 The class given is functional, organism-based.
Test [4] deals with T4, Sentrin-specific protease 8 (Homo sapiens, UniProt Q96LD8).
T4 sequence (Q96LD8 whole entry): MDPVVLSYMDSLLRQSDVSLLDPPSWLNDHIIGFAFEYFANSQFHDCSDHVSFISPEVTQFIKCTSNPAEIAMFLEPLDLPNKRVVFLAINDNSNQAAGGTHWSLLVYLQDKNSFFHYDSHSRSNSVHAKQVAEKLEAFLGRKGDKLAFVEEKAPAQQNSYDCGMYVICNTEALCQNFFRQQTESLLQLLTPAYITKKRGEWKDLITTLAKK
Type of test: functional.

The target in another test is T5, Streptokinase A (Streptococcus pyogenes serotype M1, UniProt P10520).
T5 sequence (P10520 whole entry): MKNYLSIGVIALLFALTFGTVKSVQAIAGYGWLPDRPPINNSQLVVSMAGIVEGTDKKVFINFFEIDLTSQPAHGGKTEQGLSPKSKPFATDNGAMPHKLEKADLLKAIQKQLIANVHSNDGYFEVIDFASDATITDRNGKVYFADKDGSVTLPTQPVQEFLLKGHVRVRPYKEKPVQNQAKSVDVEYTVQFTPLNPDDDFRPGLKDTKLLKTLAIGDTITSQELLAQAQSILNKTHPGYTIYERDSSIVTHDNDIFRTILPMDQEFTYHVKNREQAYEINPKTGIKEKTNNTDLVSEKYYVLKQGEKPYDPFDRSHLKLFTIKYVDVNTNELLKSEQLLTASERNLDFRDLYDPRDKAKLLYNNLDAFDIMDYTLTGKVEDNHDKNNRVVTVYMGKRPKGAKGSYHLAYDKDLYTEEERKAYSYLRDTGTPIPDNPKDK
Briefly: viability-normalized secreted streptokinase activity reduction – plasminogen activation absorbance, OD405, dose response (AID 1914).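 Also: secreted streptokinase activity via plasminogen activation per viability signal from cell pellet.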 The class given is functional, Streptococcus pyogenes M1 GAS.

The target of test [5] is T6, Eukaryotic translation initiation factor 2-alpha kinase 3 (Homo sapiens, UniProt Q9NZJ5).
T6 sequence (Q9NZJ5 whole entry): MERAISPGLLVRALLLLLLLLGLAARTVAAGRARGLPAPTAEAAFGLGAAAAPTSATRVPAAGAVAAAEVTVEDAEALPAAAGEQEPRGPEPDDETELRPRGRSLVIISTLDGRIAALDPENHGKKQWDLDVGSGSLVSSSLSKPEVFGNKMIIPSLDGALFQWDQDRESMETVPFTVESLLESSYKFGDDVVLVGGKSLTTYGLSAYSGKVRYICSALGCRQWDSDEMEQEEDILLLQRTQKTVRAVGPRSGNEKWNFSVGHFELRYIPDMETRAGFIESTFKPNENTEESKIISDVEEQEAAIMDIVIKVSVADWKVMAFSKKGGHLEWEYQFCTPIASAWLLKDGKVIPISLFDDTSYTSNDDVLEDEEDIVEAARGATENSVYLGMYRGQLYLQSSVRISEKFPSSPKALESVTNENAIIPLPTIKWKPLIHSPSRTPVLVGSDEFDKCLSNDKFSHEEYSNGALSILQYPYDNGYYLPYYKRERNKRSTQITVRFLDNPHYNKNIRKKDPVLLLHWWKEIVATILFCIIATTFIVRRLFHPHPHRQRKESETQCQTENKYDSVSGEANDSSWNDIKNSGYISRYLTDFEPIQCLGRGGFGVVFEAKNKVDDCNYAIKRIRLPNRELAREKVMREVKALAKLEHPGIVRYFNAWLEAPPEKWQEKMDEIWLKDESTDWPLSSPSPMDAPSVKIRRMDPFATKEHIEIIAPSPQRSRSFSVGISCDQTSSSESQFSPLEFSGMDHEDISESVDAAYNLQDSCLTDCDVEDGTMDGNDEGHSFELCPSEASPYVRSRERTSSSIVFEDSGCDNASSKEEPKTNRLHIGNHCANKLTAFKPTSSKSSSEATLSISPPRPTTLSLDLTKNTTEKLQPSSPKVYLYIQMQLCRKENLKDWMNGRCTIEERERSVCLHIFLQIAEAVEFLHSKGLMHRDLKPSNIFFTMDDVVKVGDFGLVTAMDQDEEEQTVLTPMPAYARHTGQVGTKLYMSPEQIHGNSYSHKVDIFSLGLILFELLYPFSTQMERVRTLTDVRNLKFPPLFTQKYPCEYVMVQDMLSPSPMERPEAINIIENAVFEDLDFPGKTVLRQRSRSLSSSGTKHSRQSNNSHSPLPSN
Briefly: Dose response cell-based high-throughput screening assay to measure PERK inhibition. [Related pubchem assays: 1416 ]. Type of test: functional.

The target of test [6] is T6, Eukaryotic translation initiation factor 2-alpha kinase 3. Briefly: Counterscreen assay for PERK inhibitors: Dose response cell-based high throughput screening assay to measure inhibition of PERK at 6 hours. [Related pubchem assays: 1522, 1416 ]. The class given is functional.
The target in the next test is Nonstructural protein 1 (Influenza A virus, UniProt Q194T2). The class given is functional, Influenza A virus (A/California/07/2009(H1N1)).
Nonstructural protein 1, sequence (Q194T2 whole entry): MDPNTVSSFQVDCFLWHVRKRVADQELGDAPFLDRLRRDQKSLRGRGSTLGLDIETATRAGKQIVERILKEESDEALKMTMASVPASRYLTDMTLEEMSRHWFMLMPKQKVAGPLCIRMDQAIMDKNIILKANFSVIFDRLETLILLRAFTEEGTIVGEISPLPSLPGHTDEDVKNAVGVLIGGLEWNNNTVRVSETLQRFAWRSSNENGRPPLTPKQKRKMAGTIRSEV
Test [7] can be described thus: fluconazole-exposed Candida albicans growth modulators – fluorescence, retest, confirmation (AID 2467). Type of test: functional, cell-based.
A short description of test [8]: NIH-3T3 fibroblast cytotoxicity, dose response, cytotoxicity control, cell-based, fluorescence, Alamar Blue, secondary assay (AID 2327).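 Also: NIH-3T3 mouse fibroblasts cultured with fluconazole at 8 µg/mL.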 Type of test: functional.
Test [9] is described as follows: blockers of HIV-1 envelope-mediated cell-cell fusion – cherry-pick, dose response (AID 652057). The class given is functional, cell-based.

Active and inactive are the calls of the source.

Turning to `Cc1ccc(-c2cc(-c3cccc(F)c3)[nH]n2)c(O)c1`, the half-maximal effective concentration (EC50) in test [1] was 7.23 µM (active); in the test with Streptococcus it was > 150 µM (not active); at Streptokinase A, 21.3 µM (active). The IC50 in test [2] was 12.2 µM (active); in test [3], 6.27 µM (active); on Caspase-3, 47.2 µM (active); in test [4] it was 23.8 µM (active).

As for `Cc1nnc(O)nc1NCCN(C)C`, the EC50 in test [5] and in [6] was > 55.7 µM (not active) each time.

Regarding `Cn1cc([N+](=O)[O-])c(C(=O)NCc2ccco2)n1`, the EC50 in [5] and in test [6] was > 55.7 µM (not active) throughout.

In the case of `O=C(CN1C(=O)COc2ccc(S(=O)(=O)N3CCOCC3)cc21)NCc1ccccn1`, the EC50 in test [5] and in test [6] was > 55.7 µM (not active) each time.

Take `Cc1cc(C(=O)N=Nc2c(O)n(C)c3ccccc23)c(C)o1`: the IC50 in [2] is 4.84 µM (active); in [3], 4.99 µM (active); on Caspase-3, 2.71 µM (active); in test [4], > 100 µM (inactive).

On to `O=[N+]([O-])c1ccc(C2NS(=O)(=O)N=C3CCCCCN32)cc1` (stereo not given), for which the EC50 in test [5] and in test [6] was > 55.7 µM (not active) each time.

Turning to `CCOc1cc(C2NC(S)=NC(C)=C2C(=O)Nc2ccc(OC)cc2)ccc1O` (stereo not given), the EC50 in test [5] and in test [6] was > 55.7 µM (not active) throughout.

Turning to `CN(C)c1ccc(N=Nc2cccc3ccoc23)cc1`, the IC50 in test [2] was 8.07 µM (active); in [3], 3.81 µM (active); at Caspase-3, 14.8 µM (active); in test [4], 8.97 µM (active); at Nonstructural protein 1, 39.3 µM (active).

`Oc1nc(Nc2ccccc2)sc1/C=C1\C=Nc2ccccc21`: the EC50 in test [1] was 17.3 µM (active); in test [7], 1.73 µM (active); in the test on Streptococcus it was 26.6 µM (active); in test [8], 17.9 µM (active); at Streptokinase A, > 150 µM (not active). Further, the IC50 in [2] was > 100 µM (inactive); in [3], 6.51 µM (active); at Caspase-3, 70.5 µM (active); in [4], > 100 µM (inactive).

Turning to `C[C@@H]1CN([C@H](C)CO)C(=O)c2cccc(NS(=O)(=O)c3ccc(F)cc3)c2O[C@@H]1CN(C)Cc1ccc(C(F)(F)F)cc1`, in [9], the AC50 was < 0.26 µM (active).

For the compound `Cc1ccc(COc2ccc(/C=N/O)cc2)cc1`, the IC50 in [2] is 14.6 µM (active); in test [3], 5.63 µM (active); on Caspase-3, 17.2 µM (active); in [4] it was 23.5 µM (active).

One may read the EC50 as the concentration at which the effect is half-maximal. The term IC50 denotes the midpoint of a concentration-inhibition curve. The AC50 is the midpoint of the concentration-response curve, whichever way the signal moves.
